We go through 89 compounds from a melting point compilation (Tetko et al.; mined from patent text by program, amines drawn as free bases though some values may be those of a salt).

A word on the melting point: it is the temperature, or range, at which the solid turns liquid.

Molecules are shown by their SMILES.

In turn, `O=C(O)c1cn(-c2ccc(O)cc2)c2cc(F)c(F)cc2c1=O` came in with a melting point of 288 to 290 °C.
In the case of `COc1ccc2c(c1)C(c1ccc(OCCN(C)C)cc1)c1c-2ccc2ccccc12` (centres undefined) it was 159 to 160 °C; in that of `Cn1cc(C2=C(c3c4n(c5ccccc35)CCC(NC(=O)OC(C)(C)C)C4)C(=O)NC2=O)c2ccccc21` (centres undefined), 153 to 155 °C; in that of `CNC(=O)C(=NOC)c1ccccc1COc1ncc(Br)cc1C`, 115 to 116 °C.
Compound `O=C(Nc1ccc(-n2ncn(-c3ccc(OCC(F)(F)C(F)F)cc3)c2=O)cc1)Oc1ccccc1` registered a melting point of 204 to 206 °C.
The compound `COC(=O)N1CCCSC1=C[N+](=O)[O-]` had a melting point of 93 to 95 °C.
Turning to `Oc1ccc(-c2c(Cl)c3cc(O)ccc3n2Cc2ccc(OCCN3CCCCCC3)cc2)cc1`, the melting point lay within 196 to 198 °C.
In the case of `CCCc1nc(NS(=O)(=O)c2ccc(C(C)(C)C)cc2)c(-c2ccc(C)cc2)c(OCCO)n1` it was 133 to 134 °C; in that of `Cc1cccc2c1Sc1nccnc1N2`, 165 to 166 °C; in that of `CCCCCCC(C(=O)Nc1ccccc1O)n1cnc(NC(=O)c2ccccc2S(=O)(=O)O)c1` (centres undefined), 138 to 147 °C.
In the case of `COC1C2=C3C(=CN1OC)OCCC3CC(CCC#N)C2` (centres undefined), the melting point lay within 105 to 107 °C.
In the case of `CC(C)(C)OC(=O)N1CCN(S(=O)(=O)c2ccc(S(=O)(=O)c3ccc4cc(Br)ccc4c3)cc2)CC1`, the melting point was in the range of 213 to 215 °C.
Take `Cc1cc(=O)[nH]c(NC(=N)Nc2ccccc2C)n1`: the melting point was found to be 260 °C.
With `Cn1c(=O)c(-c2ccccc2Cl)cc2cnc(NC3CCS(=O)(=O)CC3)nc21`, the melting point was 206 to 207 °C.
Consider `Cc1c(-c2ccccc2)sc2c(Cl)c(Cl)c(OCC(=O)O)cc12`, for which the melting point lay within 232 to 233 °C.
In the case of `CC1(C)NC(C(=O)O)C(C)(C)S1` (centres undefined) it was 206 to 208 °C; in that of `N#Cc1ccc(Nn2cnnc2)cc1-c1ccc(OCc2ccccc2)cc1`, 180 to 182 °C; in that of `Fc1cc(Br)cc(CBr)c1`, 41 to 43 °C.
In the case of `COc1ccc(-c2cc(C(Cl)Cl)nn2-c2ccc(S(N)(=O)=O)cc2)cc1F` it was 190 to 193 °C; in that of `CC(C)(C)OC(=O)c1cc(N2CCOCC2)cc([N+](=O)[O-])c1`, 116 to 118 °C; in that of `CC(C)C(=O)Nc1ccc(I)c(C(F)(F)F)c1`, 143 to 145 °C.
`CCCCC(=O)N(CCOC)Cc1ccc(-c2ccccc2-c2nnn[nH]2)cc1` gave a melting point of 120 to 122 °C.
`ON=C1CCCc2c1c1cccc3c1n2CC3` yielded a melting point of 271 to 272 °C.
Turning to `O=c1nc(-c2ccc(N3CCCC3)nc2)sc2ccccc12`, the melting point lay within 221 to 223 °C.
In turn, `CSc1cc(C)nc(SC)c1NC(=O)CCCCCCSc1nc2ccccc2[nH]1` returned a melting point of 189 to 192 °C.
As for `O=Cc1cccn1CCN1CCC(=C2c3ccccc3CCn3ccnc32)CC1`, the melting point came to 158 °C.
`COc1ccc(Cc2cc3cccc(-c4cccc(C(=O)NCCN5CCCC5)c4)c3o2)cc1OC`: the melting point is 119 to 120 °C.
With `CN1C(=O)c2cccnc2N(CCO)c2ccccc21`, the melting point is 133 to 134 °C.
The compound `CC(=O)NC[C@H]1CN(c2ccc(-n3nccc3-c3ccncc3)c(F)c2)C(=O)O1` yielded a melting point of 74.5 to 76.3 °C.
`CCOC(=O)C(C)NC(=O)N1CCc2cc(S(=O)(=O)N3CCN(c4cccc(Cl)c4)CC3)ccc21` (centres undefined): the melting point was 167 to 168 °C.
`CCOC(=O)c1ccoc1COc1cc(-c2nn(C)c(OC(F)F)c2Cl)c(F)cc1Cl` had a melting point of 59 to 61 °C.
The compound `COc1ccccc1NC(=O)Nc1nc(NCc2cccs2)nc(N(CCC(=O)O)Cc2cccc(C)c2)n1` displayed a melting point of 89 to 95 °C.
The compound `C=CC(O)c1ccc2cc(OCCCCCC)ccc2c1` (centres undefined) registered a melting point of 47 to 48 °C.
In the case of `CSC(=CC(=O)c1cnccn1)SC` it was 155 °C; in that of `CCOc1cc([N+](=O)[O-])ccc1C(O)c1cc(C)ccn1` (centres undefined), 114 to 115 °C.
`O=C(Nc1ccccc1)Nc1cccnc1Cl`: the melting point was in the range of 178 to 180 °C.
Consider `COc1cn(-c2ccc(-n3cccn3)cc2F)nc(-c2ccnn2-c2cccc(OC(F)(F)F)c2)c1=O`, for which the melting point lay within 148 to 150 °C.
As to `CCOC(=O)C1=C(C)NC(C)=C(C(=O)OCCBr)C1c1cccc([N+](=O)[O-])c1` (centres undefined), the melting point fell in the range of 158 to 159 °C.
`CCOC(=O)/C(=N\OC1CCCCCCC1)c1csc(N)n1`: the melting point lay in the range of 117 to 118 °C.
In the case of `Cn1c(Nc2c(Cl)ccc(CNC(=O)C(C)(C)C)c2Cl)nc2cc(C(=O)N[C@H]3CC[C@H](C(F)(F)F)CC3)c(N3CCC(C(F)(F)F)CC3)nc21` it was 185 to 186 °C; in that of `CCCCCCCCCCCCCCCCCC(=O)OC1CC(C)(C)N(OCC(C)(C)O)C(C)(C)C1`, 51 to 56 °C.
For `CCOC(=O)c1cn(C)c2cc(C(F)(F)F)ccc2c1=O`, the melting point was 222 to 224 °C.
Compound `Cc1ccc(CCN2CCN(c3nsc4ccccc34)CC2)c2c1C(C)(C)CC(=O)N2` displayed a melting point of 129 °C.
`OC(c1nccs1)(c1nccs1)C(F)(F)F`: the melting point is 113 to 115 °C.
Compound `O=C(O)CCCCc1ccc(NS(=O)(=O)c2ccccc2)cn1` returned a melting point of 136 to 138 °C.
In the case of `COC(=O)C(=C/c1cc(OC)c(OC)c(OC)c1)/C(C(N)=O)=C(/C)c1ccccc1` it was 141 to 143 °C; in that of `CCOc1cc2c(cc1OCC)C(C(S)(C#N)CCC(=O)O)=NCC2` (centres undefined), 106 to 108 °C; in that of `O=C(NCC12CC3CC(CC(C3)C1)C2)c1ccccc1C(c1ccc(O)cc1)c1ccc(O)cc1`, 149 to 151 °C.
`N#Cc1nccn1Cc1cccs1`: the melting point fell in the range of 64 to 65 °C.
Take `COc1ccc2cccc(CO)c2c1`: the melting point fell in the range of 72 to 74 °C.
Compound `CC1(C)NC(=S)NC1=S` came in with a melting point of 144 °C.
`COc1ccc(CCN(C)C(=O)COc2ccc([N+](=O)[O-])cc2)cc1OC` showed a melting point of 121 °C.
`CS(=O)(=O)c1ccc(-c2cc(F)c(F)cc2Br)cc1` returned a melting point of 158 to 160 °C.
`COc1cc2c(c3c1OC(C)(C)C3)C(c1ccccc1-c1ccncc1)=NC(C)(C)C2`: the melting point lay within 187 to 189 °C.
Turning to `Nc1ccc2c(c1)CN(c1c(F)cc3c(=O)c(C(=O)O)cn(-c4ccc(F)cc4F)c3c1F)C2`, the melting point is greater than 300 °C.
Compound `CC(=O)OC1CCC2(C)C(CCC3C2CCC2(C)C(=O)CCC32O)C1` (centres undefined) gave a melting point of 182 to 184 °C.
In the case of `CCOC(=O)C1=C(N)NC(c2ccccc2)=C(C(=O)O)C1c1ccccc1` (centres undefined) it was 183 °C.
`Cn1c(COc2ccc(C#N)cc2)nc2nc(CO)ccc21` registered a melting point of 172 °C.
With `O=C(O)CCC/C=C\[C@@H]1C[C@@H](NS(=O)(=O)c2ccccc2)CN1S(=O)(=O)c1ccc(Cl)cc1` the figure was 121 to 123 °C.
`CCCCNC(=O)NCC1CCN(c2ncnc3cc(OC)c(OC)cc23)CC1` registered a melting point of 141 to 143 °C.
For `CC(=O)NCCC1CCc2ccc3ocnc3c21` (centres undefined), the melting point was in the range of 89 to 92 °C.
In the case of `Nc1ccc(-c2cn(CCF)nn2)cc1` it was 79 to 82 °C.
The compound `CNC(=O)c1ncn(C(OC)c2ccc(Cl)c(Cl)c2)c1C(=O)NC` (single isomer, unassigned; (+)) had a melting point of 112 to 114 °C.
The compound `CNC1=NN(c2ccc(Cl)cc2)C(C)C1` (centres undefined) returned a melting point of 102 to 103 °C.
With `C=CC(=O)NC(CCC(=O)O)C(=O)O` (centres undefined), the melting point was 125 to 127 °C.
Consider `COc1ccc(CC(C)NC(=O)C(F)(F)F)cc1` (centres undefined), for which the melting point was 100 to 102 °C.
`NC(=S)c1[nH]c2ccc(Cl)cc2c1S(=O)(=O)c1ccccc1` came in with a melting point of 207 to 210 °C.
`CCN(CC)CCNC(=O)c1cc(Cl)c(N)cc1OCCN`: the melting point lay in the range of 97 to 99 °C.
In turn, `CC(C#N)C(O)(Cn1cncn1)c1ccc(Cl)cc1Cl` (centres undefined) displayed a melting point of 164 °C.
As to `O=C(O)c1ccc2c(Br)cccc2c1`, the melting point fell in the range of 248 to 250 °C.
In turn, `OC1(c2ccc(Cl)cc2)CCN(CCCOc2ccc(F)cc2)CC1` yielded a melting point of 134 to 135 °C.
Compound `CCCCOC(=O)NCc1nc(-c2ccc3c(c2)Nc2ccccc2S3)cs1` had a melting point of 186 to 188 °C.
In the case of `COC(=O)c1ccc(OC)c(N(C(C)=O)c2cc(Cl)cc(Cl)c2)c1` it was 100 to 101 °C; in that of `O=C(O)C(=O)CC(=O)c1ccc(C2CCCCC2)cc1`, 140 to 142 °C.
In the case of `O=C(OCC1CC1)c1ncn2c1[C@@H]1CCN1C(=O)c1c(I)cccc1-2` it was 190 to 191 °C; in that of `CC1(O)CC(=O)OC(c2ccc(OCc3ccccc3)cc2)C1Br` (centres undefined), 157 to 162 °C.
In the case of `Cc1ccc(-c2c(N)ncnc2OCCO)cc1`, the melting point is 91.5 to 93.5 °C.
As to `CCC1Cc2cc(OCC(=O)OC)c(Cl)c(Cl)c2C1=O` (centres undefined), the melting point lay within 134 to 137 °C.
In the case of `Cc1nc(-c2ccc(Cl)cc2)c(CBr)o1` it was 75 to 76 °C; in that of `Cc1c(-c2cc([N+](=O)[O-])c(F)cc2F)ncnc1C(F)F`, 85 to 86 °C; in that of `CCCc1nn(C)c2c(=O)[nH]c(-c3cc(C(=O)N4CCN(C)CC4)ccc3OCC)nc12`, 196 to 197 °C.
`COc1ccc(C(=O)N2c3ccccc3C(n3c4ccccc4c4ccccc43)CC2CCCCCN2CCN(c3ccc(F)cc3)CC2)cc1OC` (centres undefined) displayed a melting point of 178 to 179 °C.
In turn, `C#CCOCCn1c(N2CCN(C)CC2)nc2ccccc21` showed a melting point of 145 to 146 °C.
In the case of `Nc1nc(-c2ccncc2)nc2c1c(Br)nn2C1CCCC1` it was 189 to 191 °C.
With `CCNc1ccc(F)cc1OCc1ccccc1` the figure was 58 to 59 °C; with `CCOc1cc2c(Nc3cc(OC)c(Cl)cc3Cl)c(C#N)cnc2cc1OCCCC1CCN(C)CC1`, 148 to 151 °C.
In the case of `CCc1cc(CC)c(-c2c(O)c(C)nn(C)c2=O)c(CC)c1Br` it was 225 to 226 °C; in that of `O=C1C=C(O)C(Cc2ccc(Br)cc2)S1` (centres undefined), 156 to 157 °C.
Consider `COc1ccc(Cn2cnc3c(Cl)nc(F)nc32)cc1`, for which the melting point worked out at 90 °C.
